Numbered stars: 1 amine (or outer) side, 2 acyl side, 3 side chain; on linkers, the order of the positions; unused ones are H or OH. Square brackets hold non-standard residues; d marks the D form. Peptide text beside a SMILES is read from it. * marks the point of attachment. ξ: configuration not given here. X4 = COc1nc(CC(=O)[*:2])ccc1N[*:1]; NH(2-Me-phenyl) = Cc1ccccc1N*; Tic = O=C(O)[CH]1Cc2ccccc2CN1; Cha = N[CH](CC1CCCCC1)C(=O)O; Chg = N[CH](C(=O)O)C1CCCCC1; Nva = CCC[CH](N)C(=O)O; PhAc = O=C(Cc1ccccc1)*; CO = O=C([*:1])[*:2]; ξNva = CCCC(N)C(=O)O
These compounds were tested against T1, VLA4 (Homo sapiens, UniProt P05556+P13612) (assay: Inhibition of VLA4-dependent adhesion to BSA-CS1). Conditions: binding of BCECF-labelled Ramos cells to BSA-CS1 coated wells, 2 mM MnCl2; read-out: IC50.
T1 construct: endogenous in cells; host or cells: Ramos cells
T1 sequence (P13612 34-1032): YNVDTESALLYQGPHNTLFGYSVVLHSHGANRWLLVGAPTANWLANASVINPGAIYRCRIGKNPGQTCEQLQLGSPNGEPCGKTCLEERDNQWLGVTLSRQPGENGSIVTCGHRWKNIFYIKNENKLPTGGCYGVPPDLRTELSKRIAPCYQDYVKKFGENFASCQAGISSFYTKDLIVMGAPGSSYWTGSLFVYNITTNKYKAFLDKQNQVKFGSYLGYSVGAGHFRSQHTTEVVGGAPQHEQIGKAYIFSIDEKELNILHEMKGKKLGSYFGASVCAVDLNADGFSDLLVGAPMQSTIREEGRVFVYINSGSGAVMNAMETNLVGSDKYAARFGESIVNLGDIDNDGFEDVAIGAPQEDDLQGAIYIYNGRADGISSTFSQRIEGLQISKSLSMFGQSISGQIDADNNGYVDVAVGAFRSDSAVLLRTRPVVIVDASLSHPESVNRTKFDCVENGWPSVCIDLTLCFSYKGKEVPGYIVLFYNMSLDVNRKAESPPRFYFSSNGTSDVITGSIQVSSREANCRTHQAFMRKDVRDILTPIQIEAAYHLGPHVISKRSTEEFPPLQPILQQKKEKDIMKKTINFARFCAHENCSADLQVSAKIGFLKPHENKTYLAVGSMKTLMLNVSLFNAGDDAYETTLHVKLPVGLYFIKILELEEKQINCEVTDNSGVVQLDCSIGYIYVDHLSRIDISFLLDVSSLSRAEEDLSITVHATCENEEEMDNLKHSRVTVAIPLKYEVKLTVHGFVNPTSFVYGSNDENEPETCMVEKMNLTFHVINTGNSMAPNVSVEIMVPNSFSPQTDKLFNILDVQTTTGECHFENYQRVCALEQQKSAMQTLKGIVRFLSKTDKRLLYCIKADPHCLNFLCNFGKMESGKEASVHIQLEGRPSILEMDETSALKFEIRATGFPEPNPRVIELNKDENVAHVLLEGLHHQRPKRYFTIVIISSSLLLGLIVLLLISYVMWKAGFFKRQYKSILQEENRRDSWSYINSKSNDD
T1 sequence (P05556 21-798): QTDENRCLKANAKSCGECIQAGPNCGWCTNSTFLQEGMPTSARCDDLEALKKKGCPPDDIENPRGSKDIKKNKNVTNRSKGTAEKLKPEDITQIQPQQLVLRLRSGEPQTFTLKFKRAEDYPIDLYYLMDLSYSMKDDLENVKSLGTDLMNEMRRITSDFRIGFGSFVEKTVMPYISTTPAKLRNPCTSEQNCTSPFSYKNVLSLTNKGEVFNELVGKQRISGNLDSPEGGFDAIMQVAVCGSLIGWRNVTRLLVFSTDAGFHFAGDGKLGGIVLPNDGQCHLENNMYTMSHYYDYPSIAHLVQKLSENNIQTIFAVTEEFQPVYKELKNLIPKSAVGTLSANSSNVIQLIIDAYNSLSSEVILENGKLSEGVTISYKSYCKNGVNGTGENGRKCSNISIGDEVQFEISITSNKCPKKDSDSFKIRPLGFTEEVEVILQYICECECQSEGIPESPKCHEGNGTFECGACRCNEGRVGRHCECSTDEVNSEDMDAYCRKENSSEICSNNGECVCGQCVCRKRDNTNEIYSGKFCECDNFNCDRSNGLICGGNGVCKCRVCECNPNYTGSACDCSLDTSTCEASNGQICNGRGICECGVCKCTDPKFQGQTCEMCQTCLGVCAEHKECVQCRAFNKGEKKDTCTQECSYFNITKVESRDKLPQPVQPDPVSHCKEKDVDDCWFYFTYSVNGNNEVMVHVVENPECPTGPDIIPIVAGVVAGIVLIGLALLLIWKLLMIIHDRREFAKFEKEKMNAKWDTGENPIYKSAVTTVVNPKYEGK
Type: cell-based
Excerpt: For example, the cell adhesion inhibitory activity of these compounds may be measured by determining the concentration of inhibitor required to block the binding of VLA-4-expressing cells to fibronectin- or CS1-coated plates. In this assay microtiter wells are coated with either fibronectin (containing the CS-1 sequence) or CS-1. If CS-1 is used, it must be conjugated to a carrier protein, such as bovine serum albumin, in order to bind to the wells. Once the wells are coated, varying concentrations of the test compound are then added together with appropriately labelled, VLA-4-expressing cells. Alternatively, the test compound may be added first and allowed to incubate with the coated wells prior to the addition of the cells. The cells are allowed to incubate in the wells for at least 30 minutes. Following incubation, the wells are emptied and washed. Inhibition of binding is measured by quantitating the fluorescence or radioactivity bound to the plate for each of the various concentrations of test compound, as well as for controls containing no test compound.
VLA-4-expressing cells that may be utilized in this assay include Ramos cells, Jurkat cells, A375 melanoma cells, as well as human peripheral blood lymophocytes (PBLs). The cells used in this assay may be fluorescently or radioactively labelled.
This assay was used to assess the potency of VLA4-directed inhibitory compounds of this invention.
We dissolved BSA-SMCC (Pierce Chemical, Rockford, Ill.; Catalog #77115) in H2O at a concentration of 10 mg/mL. [SEQ ID NO:4]: […](“Cys-Tyr-CS1 peptide”), which we synthesized by conventional solid phase chemistry and purified by HPLC, was dissolved in 10 mM HEPES pH 5, 50 mM NaCl and 0.1 mM EDTA also at a concentration of 10 mg/mL. We then mixed 500 μL of BSA-SMCC, 250 μL of Cys-Tyr-CS1 peptide and 75 μL of 1 mM HEPES pH 7.5 and allowed the conjugation reaction to proceed for 30 minutes. We stopped the reaction by adding 1 μL of beta-mercaptoethanol. Samples were analyzed for cross-linking by SDS-PAGE.
We coated the wells of a Linbro titertek polystyrene 96-well flat bottom plate (Flow Laboratories, Maclean, Va.; catalog #76-231-05) with 100 μL of the above-described BSA-CS1 solution diluted to 1 μg/mL in 0.05 M NaHCO3 (15 mM NaHCO3, 35 mM Na2CO3) pH 9.2. Some wells were not coated with CS1 in order to assess non-specific cell binding (NSB). The plate was then incubated overnight at 4° C.
Following this incubation, the contents of the wells were removed by inverting and blotting the plate. All of the wells were then blocked with 100 μL of 1% BSA in PBS, 0.02% NaN3, for a minimum of one hour at room temperature.
Ramos cells are grown, maintained and labelled in RPMI 1640 culture medium containing 1% BSA. Just prior to running the assay, we added 2′,7′-bis-(2-carboxyethyl)-5 (and -6) carboxyfluorescein acetoxymethyl ester (“BCECF-AM”; Molecular Probes Inc., Eugene, Oreg.; catalog #B-1150) to a final concentration of 2 μM to a culture of Ramos cells (4×10^6 cells/mL). We incubated the cells for 20 minutes at 37° C.
Following labelling, the cells were washed twice in assay buffer (24 mM TRIS, 137 mM NaCl, 2.7 mM KCl, pH 7.4, containing 0.1% BSA and 2 mM glucose) to remove any cations originating from the culture medium. The cells were then resuspended in assay buffer to 4×10^6 cells/mL and 2 mM MnCl2 was added to upregulate VLA4 on the surface of the cells.
Immediately prior to running the assay, we removed the BSA blocking solution from the 96-well plates and washed the wells with 100 μL of assay buffer. We then added to each well 25 μL of test cell adhesion inhibitory compound at 2× the final concentration and 25 μL of the labelled Ramos cells. […] Each concentration of compound was tested in triplicate. The compound and cells are allowed to incubate for 30 minutes at room temperature.

Row | IC50 [nM] | Structure (SMILES)
1 | < 50 | Cc1ccccc1NC(=O)Nc1ccc(CC(=O)N2CCC[C@H]2C(=O)N[C@@H](CCC(=O)O)C(=O)N[C@@H](CC(=O)O)C(N)=O)cc1 [Compound 312]
2 | > 10000 | CC(C)C[C@H](NC(=O)Nc1cnc2ccccc2n1)C(=O)N[C@@H](CC(=O)O)C(=O)N[C@H](C(=O)O)C(C)C [Compound 380]
3 | < 50 | CSCC[C@H](NC(=O)[C@H](CC(=O)O)NC(=O)[C@@H](NC(=O)Cc1ccc(NC(=O)Nc2ccccc2C)cc1)[C@@H](C)O)C(N)=O [Compound 258]
4 | < 50 | Cc1ccccc1NC(=O)Nc1ccc(CC(=O)N[C@@H](CC(C)C)C(=O)N[C@@H](CC(=O)O)C(=O)N[C@H](CO)C(N)=O)cc1 [Compound 240]
5 | < 50 | COc1nc(CC(=O)N[C@@H](CC(C)C)C(=O)N[C@@H](CC(=O)O)C(=O)N[C@H](C(=O)N2CCC[C@H]2C(=O)O)C(C)C)ccc1NC(=O)Nc1ccccc1C [Compound 4] ({NH(2-Me-phenyl)-CO}-[X4]LDVP-OH)
6 | < 50 | Cc1ccccc1NC(=O)Nc1ccc(CC(=O)N[C@H](CC(C)C)C(=O)N[C@@H](CC(=O)O)C(=O)N[C@H](C(N)=O)C(C)C)cc1 [Compound 288]
7 | < 50 | Cc1ccccc1NC(=O)Nc1ccc(CC(=O)N[C@H](C(=O)N[C@@H](CC(=O)O)C(=O)N[C@H](CC(N)=O)C(N)=O)[C@@H](C)O)cc1 [Compound 259]
8 | < 50 | Cc1ccccc1NC(=O)Nc1ccc(CC(=O)NC(CC(C)C)C(=O)NC(CC(=O)O)C(=O)NC(CO)C(N)=O)cc1 (stereo not shown) [Compound 296]
9 | > 10000 | CC(C)CC(NC(=O)CCc1ccc(O)cc1)C(=O)NC(CC(=O)O)C(=O)NC(C(=O)N1CCCC1C(=O)O)C(C)C (stereo not shown) [Compound 38]
10 | > 10000 | CC(C)C(NC(=O)C(CC(=O)O)NC(=O)C(CC1CCCCC1)NC(=O)C1Cc2ccccc2CN1)C(=O)O (stereo not shown) [Compound 86] (H-[Tic][Cha]DV-OH; configuration not given here)
11 | > 10000 | CCCC(NC(=O)Cc1ccccc1)C(=O)N[C@@H](CC(=O)O)C(=O)N[C@H](C(=O)NC)C(C)C (stereo partly drawn) [Compound 49] (PhAc-[ξNva]-Asp-Val-NHMe)
12 | < 50 | Cc1ccccc1NC(=O)Nc1ccc(CC(=O)N[C@@H](CC(C)C)C(=O)N[C@@H](CC(=O)O)C(=O)N[C@@H](Cc2c[nH]c3ccccc23)C(N)=O)cc1 [Compound 239]
13 | > 10000 | CC(C)C(NC(=O)C(CC(=O)O)NC(=O)C(NC(=O)C1Cc2ccccc2CN1)C1CCCCC1)C(=O)O (stereo not shown) [Compound 84] (H-[Tic][Chg]DV-OH; configuration not given here)
14 | > 10000 | CC(C)C(NC(=O)C(CC(=O)O)NC(=O)C(NC(=O)c1cc2ccccc2cn1)C1CCCCC1)C(=O)O (stereo not shown) [Compound 83]
15 | > 10000 | CCCC(NC(=O)C(CC(=O)O)NC(=O)C(CC(C)C)NC(=O)Cc1ccccc1)C(=O)NC (stereo not drawn) [Compound 51] (PhAc-Leu-Asp-[Nva]-NHMe; configuration not given here)
16 | > 10000 | COc1ccc2cc(C(C)C(=O)N[C@@H](CC(C)C)C(=O)N[C@@H](CC(=O)O)C(=O)N[C@H](C(=O)O)C(C)C)ccc2c1 (stereo partly shown) [Compound 394]
17 | > 10000 | Cc1c(C(=O)N[C@@H](CC(C)C)C(=O)N[C@@H](CC(=O)O)C(=O)N[C@H](C(=O)O)C(C)C)cnn1-c1ccccc1 [Compound 369]
18 | > 10000 | COc1cccc(CC(=O)N[C@@H](CC(C)C)C(=O)N[C@@H](CC(=O)O)C(=O)N[C@H](C(=O)O)C(C)C)c1 [Compound 367]
19 | > 10000 | CCCc1ccc(C(=O)N[C@@H](CC(C)C)C(=O)N[C@@H](CC(=O)O)C(=O)N[C@H](C(=O)O)C(C)C)cc1 [Compound 374]
20 | 50 to 10000 | CC(C)C[C@H](NC(=O)c1coc2c1C(=O)CCC2)C(=O)N[C@@H](CC(=O)O)C(=O)N[C@H](C(=O)O)C(C)C [Compound 371]

Row | IC50 [nM] | Structure (SMILES)
21 | < 50 | Cc1ccccc1NC(=O)Nc1ccc(CC(=O)N[C@@H](CO)C(=O)N[C@@H](CC(=O)O)C(=O)N[C@H](C(N)=O)C(C)C)cc1 [Compound 277]
22 | < 50 | Cc1ccccc1NC(=O)Nc1ccc(CC(=O)N[C@@H](CC(C)C)C(=O)N[C@@H](CCC(=O)O)C(=O)N[C@H](C(N)=O)C(C)C)cc1 [Compound 311]
23 | > 10000 | CC(C)C[C@H](NC(=O)c1csc(-c2ccncc2)n1)C(=O)N[C@@H](CC(=O)O)C(=O)N[C@H](C(=O)O)C(C)C [Compound 376]
24 | < 50 | Cc1ccccc1NC(=O)Nc1ccc(CC(=O)N[C@@H](CCC(N)=O)C(=O)N[C@@H](CC(=O)O)C(=O)N[C@@H](CC(=O)O)C(N)=O)cc1 [Compound 297]
25 | > 10000 | CC(C)CC(NC(=O)CCc1ccc(O)cc1)C(=O)NC(CC(=O)O)C(=O)NCC1CCCCC1 (stereo not shown) [Compound 14]
26 | < 50 | CC(C)C[C@H](NC(=O)Cc1ccc(NC(=O)Nc2ccccc2)cc1)C(=O)N[C@@H](CC(=O)O)C(=O)N[C@H](C(=O)O)C(C)C [Compound 203]
27 | < 50 | Cc1ccccc1NC(=O)Nc1ccc(CC(=O)NC(CC(C)C)C(=O)NC(CC(=O)O)C(=O)NC(C(=O)N2CCOCC2)C(C)C)cc1 (stereo not shown) [Compound 329]
28 | 50 to 10000 | CCC(C)C(NC(=O)C(CC(=O)O)NC(=O)C(CC(C)C)NC(=O)C1CCc2ccccc2N1)C(=O)NC (stereo not shown) [Compound 58]
29 | 50 to 10000 | CCC(C)C(NC(=O)C(CC(=O)O)NC(=O)C(CC(C)C)NC(=O)c1ccc2ccccc2n1)C(=O)OC (stereo not shown) [Compound 56]
30 | > 10000 | CCC(C)C(NC(=O)CCc1ccc(O)cc1)C(=O)NC(CC(=O)O)C(=O)NCC(C)C (stereo not shown) [Compound 17]
31 | < 50 | Cc1ccccc1NC(=O)Nc1ccc(CC(=O)N[C@@H](CC(C)C)C(=O)N[C@@H](CC(=O)O)C(=O)N[C@@H](CCC(=O)O)C(N)=O)cc1 [Compound 234]
32 | 50 to 10000 | CNC(=O)[C@@H](CC(C)C)NC(=O)[C@H](CCC(=O)O)NC(=O)[C@@H]1CCCN1C(=O)Cc1ccc(NC(=O)Nc2ccccc2C)cc1 [Compound 414]
33 | < 50 | Cc1ccccc1NC(=O)Nc1ccc(CC(=O)N[C@@H](CCC(N)=O)C(=O)N[C@@H](CC(=O)O)C(=O)N[C@H](CCC(=O)O)C(N)=O)cc1 [Compound 305]
34 | > 10000 | CC(C)CC(NC(=O)C1Cc2ccccc2CN1)C(=O)NC(CC(=O)O)C(=O)NC(C(=O)N1CCCC1C(=O)O)C(C)C (stereo not shown) [Compound 33] (H-[Tic]LDVP-OH; configuration not given here)
35 | < 50 | Cc1ccccc1NC(=O)Nc1ccc(CC(=O)N[C@@H](CC(C)C)C(=O)N[C@@H](CC(=O)O)C(=O)N[C@H](C(N)=O)C(C)C)cc1 [Compound 232]
36 | < 50 | Cc1ccccc1NC(=O)Nc1ccc(CC(=O)N[C@@H](CCC(=O)O)C(=O)N[C@@H](CC(=O)O)C(=O)N[C@H](CCC(=O)O)C(N)=O)cc1 [Compound 271]
37 | < 50 | CSCC[C@H](NC(=O)Cc1ccc(NC(=O)Nc2ccccc2C)cc1)C(=O)N[C@@H](CC(=O)O)C(=O)N[C@@H](Cc1c[nH]c2ccccc12)C(N)=O [Compound 228]
38 | > 10000 | CC[C@H](C)[C@H](NC(=O)CCc1ccc(O)cc1)C(=O)N[C@H](CC(=O)O)C(=O)NCC(C)C [Compound 16]
39 | > 10000 | CC(C)C[C@H](NC(=O)C1COc2ccc(Cl)cc2C1)C(=O)N[C@@H](CC(=O)O)C(=O)N[C@H](C(=O)O)C(C)C (stereo partly shown) [Compound 386]
40 | < 50 | Cc1ccccc1NC(=O)Nc1ccc(CC(=O)N[C@H](C(=O)N[C@@H](CC(=O)O)C(=O)N[C@@H](CC(=O)O)C(N)=O)[C@@H](C)O)cc1 [Compound 252]

Reference: patent US6875743B1, “Cell adhesion inhibitors” (Biogen, Inc., priority 1996, dated 2005)
